Experimental data: the NIST ThermoML archive (doi:10.1016/j.jct.2015.12.025)

Tests used:
[1] = refractive index (Na D-line) (dimensionless); xn = mol fraction of the nth substance listed; details: 102 kPa, Liquid, Standard Abbe refractometry
[2] = xn = mol fraction of the nth substance listed; details: 102 kPa, Liquid, Vibrating tube method

C[Si]1(CCC(F)(F)F)O[Si](C)(CCC(F)(F)F)O[Si](C)(CCC(F)(F)F)O1 (stereo not given) + COc1ccccc1
Details	mass density, 308.15 K [kg/m3]	mass density, 313.15 K [kg/m3]	mass density, 318.15 K [kg/m3]	mass density, 323.15 K [kg/m3]	refractive index, 308.15 K	refractive index, 313.15 K	refractive index, 318.15 K	refractive index, 323.15 K
[1], x1 = 0.0502	–	–	–	–	1.48464	1.48208	1.47955	1.47695
[1], x1 = 0.0999	–	–	–	–	1.4658	1.4633	1.46089	1.45834
[1], x1 = 0.15	–	–	–	–	1.45042	1.44796	1.44565	1.44317
[1], x1 = 0.1999	–	–	–	–	1.43774	1.43532	1.43308	1.43068
[1], x1 = 0.2501	–	–	–	–	1.42699	1.42468	1.42242	1.42006
[1], x1 = 0.2998	–	–	–	–	1.41796	1.41563	1.41345	1.41113
[1], x1 = 0.3498	–	–	–	–	1.41011	1.40783	1.40566	1.40338
[1], x1 = 0.4001	–	–	–	–	1.40327	1.401	1.39886	1.39659
[1], x1 = 0.4497	–	–	–	–	1.39729	1.39509	1.39295	1.39069
[1], x1 = 0.4997	–	–	–	–	1.39198	1.3898	1.38766	1.38549
[1], x1 = 0.5453	–	–	–	–	1.38765	1.38551	1.38335	1.3812
[1], x1 = 0.6001	–	–	–	–	1.38297	1.38081	1.37871	1.37655
[1], x1 = 0.6498	–	–	–	–	1.37914	1.37703	1.37495	1.37279
[1], x1 = 0.6995	–	–	–	–	1.3757	1.37358	1.37151	1.36941
[1], x1 = 0.7502	–	–	–	–	1.3725	1.37039	1.36832	1.36625
[1], x1 = 0.8	–	–	–	–	1.3696	1.36751	1.36547	1.36338
[1], x1 = 0.8491	–	–	–	–	1.36697	1.36492	1.36288	1.36086
[1], x1 = 0.8997	–	–	–	–	1.3645	1.36245	1.36042	1.35837
[1], x1 = 0.9497	–	–	–	–	1.36221	1.36019	1.35818	1.35616
[1], x1 = 1	–	–	–	–	1.36011	1.35808	1.35609	1.35407
[2], x1 = 0.0502	1018.9	1013.91	1008.94	1003.9	–	–	–	–
[2], x1 = 0.0999	1050.1	1044.97	1039.74	1034.53	–	–	–	–
[2], x1 = 0.15	1076.1	1070.73	1065.35	1059.95	–	–	–	–
[2], x1 = 0.1999	1097.79	1092.31	1086.77	1081.24	–	–	–	–
[2], x1 = 0.2501	1116.38	1110.76	1105.11	1099.47	–	–	–	–
[2], x1 = 0.2998	1132.25	1126.52	1120.84	1115.01	–	–	–	–
[2], x1 = 0.3498	1146.05	1140.29	1134.47	1128.62	–	–	–	–
[2], x1 = 0.4001	1158.32	1152.45	1146.5	1140.45	–	–	–	–
[2], x1 = 0.4497	1169.15	1163.11	1156.93	1151	–	–	–	–
[2], x1 = 0.4997	1178.65	1172.56	1166.57	1160.21	–	–	–	–
[2], x1 = 0.5453	1186.4	1180.31	1174.14	1168.04	–	–	–	–
[2], x1 = 0.6001	1194.94	1188.71	1182.53	1176.37	–	–	–	–
[2], x1 = 0.6498	1201.9	1195.72	1189.43	1183.1	–	–	–	–
[2], x1 = 0.6995	1208.15	1201.84	1195.66	1189.14	–	–	–	–
[2], x1 = 0.7502	1214.01	1207.72	1201.45	1194.99	–	–	–	–
[2], x1 = 0.8	1219.27	1212.9	1206.52	1200.09	–	–	–	–
[2], x1 = 0.8491	1223.97	1217.59	1211.19	1204.79	–	–	–	–
[2], x1 = 0.8997	1228.56	1222.13	1215.62	1209.23	–	–	–	–
[2], x1 = 0.9497	1232.67	1226.23	1219.73	1213.21	–	–	–	–
[2], x1 = 1	1236.63	1230.05	1223.55	1216.99	–	–	–	–
